Test results published in publication PMC7580763, “Novel insights on saccharin- and acesulfame-based carbonic anhydrase inhibitors: design, synthesis, modelling investigations and biological activity evaluation” (Journal of Enzyme Inhibition and Medicinal Chemistry, 2020).
Like-named read-outs stand apart in the source and are kept apart here.

How the values were obtained:
Format in all cases: biochemical
hCA II = hCA II (Homo sapiens, UniProt P00918); test: CA inhibition, stopped-flow CO2 hydrase assay, hCA II
Description: (§1) An Applied Photophysics stopped-flow instrument has been used for assaying the CA-catalyzed CO2 hydration activity. […] The initial rates of the CA-catalysed CO2 hydration reaction were followed for a period of 10−100 s. The CO2 concentrations ranged from 1.7 to 17 mM for the determination of the kinetic parameters and inhibition constants. […] The uncatalyzed rates were determined in the same manner and subtracted from the total observed ones. Stock solutions of each inhibitor (0.1 mM) were prepared in distilled − deionized water and dilutions up to 0.01 nM were done thereafter with distilled − deionized water. Inhibitor and enzyme solutions were preincubated together for 15 min at room temperature prior to assay to allow for the formation of the E−I complex. The inhibition constants were obtained by nonlinear least-squares methods using the Cheng-Prusoff equation and represent the mean from at least three different determinations. […] Human CA isoforms were recombinant enzymes obtained in-house as reported earlier.

hCA XII = hCA XII (Homo sapiens, UniProt O43570); test: CA inhibition, stopped-flow CO2 hydrase assay, hCA XII
Sequence of hCA XII (O43570 25-354): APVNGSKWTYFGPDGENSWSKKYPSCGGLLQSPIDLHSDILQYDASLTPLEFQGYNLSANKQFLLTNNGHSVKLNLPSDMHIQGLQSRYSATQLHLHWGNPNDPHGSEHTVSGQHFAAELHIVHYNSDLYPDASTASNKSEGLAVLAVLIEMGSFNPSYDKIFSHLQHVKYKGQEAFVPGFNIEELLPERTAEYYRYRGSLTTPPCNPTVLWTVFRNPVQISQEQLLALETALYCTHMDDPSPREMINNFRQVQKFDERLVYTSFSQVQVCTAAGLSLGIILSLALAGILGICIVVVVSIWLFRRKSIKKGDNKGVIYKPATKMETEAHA
Description: as §1

hCA I = hCA I (Homo sapiens, UniProt P00915); test: CA inhibition, stopped-flow CO2 hydrase assay, hCA I
Sequence of hCA I (P00915 whole entry): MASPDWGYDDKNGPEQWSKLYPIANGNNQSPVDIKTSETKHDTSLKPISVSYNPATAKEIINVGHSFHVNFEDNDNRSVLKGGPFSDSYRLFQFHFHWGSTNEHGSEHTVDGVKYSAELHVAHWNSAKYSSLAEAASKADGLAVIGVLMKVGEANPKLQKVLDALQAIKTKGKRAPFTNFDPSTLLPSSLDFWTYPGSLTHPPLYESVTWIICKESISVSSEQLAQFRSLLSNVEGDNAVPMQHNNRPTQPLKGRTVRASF
Description: as §1

hCA IX = hCA IX (Homo sapiens, UniProt Q16790); test: CA inhibition, stopped-flow CO2 hydrase assay, hCA IX
Description: as §1

[1] = Table 2, acesulfame-based derivatives, mean from 3 different assays, errors ± 5–10%
[2] = Table 1, saccharin-based derivatives, recombinant enzyme, 15 min preincubation, pH 7.5

| Structure (SMILES) | Ki (hCA II; [2]) | Ki (hCA XII; [2]) | Ki (hCA I; [2]) | Ki (hCA IX; [2]) | further results |
| --- | --- | --- | --- | --- | --- |
| CC1=CC(OCc2cn(-c3ccc(Cl)cc3)nn2)=NS(=O)(=O)O1 [Compound 57] | – | – | – | – | Ki (hCA II; [1]): > 1000 µM; Ki (hCA XII; [1]): > 1000 µM; Ki (hCA I; [1]): > 1000 µM; Ki (hCA IX; [1]): > 1000 µM |
| COc1ccc(NS(=O)(=O)c2ccccc2C(=O)O)cc1 [Compound 28] | > 1000 µM | > 1000 µM | > 1000 µM | > 1000 µM | – |
| COc1ccc(-n2cc(COC3=NS(=O)(=O)OC(C)=C3)nn2)cc1 [Compound 59] | – | – | – | – | Ki (hCA II; [1]): > 1000 µM; Ki (hCA XII; [1]): > 1000 µM; Ki (hCA I; [1]): > 1000 µM; Ki (hCA IX; [1]): > 1000 µM |
| Cc1cccc(C)c1NS(=O)(=O)c1ccccc1C(=O)O [Compound 26] | > 1000 µM | > 1000 µM | > 1000 µM | > 1000 µM | – |
| O=C(O)c1ccccc1S(=O)(=O)NCc1cn(-c2ccccc2)nn1 [Compound 47] | > 1000 µM | > 1000 µM | > 1000 µM | 927 µM | inhibitory activity against hCA II, in words (hCA II): ineffective; inhibitory activity against hCA XII, in words (hCA XII): ineffective; inhibitory activity against hCA I, in words (hCA I): ineffective; inhibitory activity against hCA IX, in words (hCA IX): ineffective |
| CC1=CC(=O)N(Cc2cn(-c3ccccc3)nn2)S(=O)(=O)O1 [Compound 53] | – | – | – | – | Ki (hCA II; [1]): > 1000 µM; Ki (hCA XII; [1]): > 1000 µM; Ki (hCA I; [1]): > 1000 µM; Ki (hCA IX; [1]): > 1000 µM |
| CC1=CC(OCc2cn(-c3ccc(C)cc3)nn2)=NS(=O)(=O)O1 [Compound 56] | – | – | – | – | Ki (hCA II; [1]): > 1000 µM; Ki (hCA XII; [1]): > 1000 µM; Ki (hCA I; [1]): > 1000 µM; Ki (hCA IX; [1]): > 1000 µM |
| COc1ccc(-n2cc(CN3C(=O)c4ccccc4S3(=O)=O)nn2)cc1 [Compound 45] | > 1000 µM | > 1000 µM | > 1000 µM | 666 µM | – |
| CC1=CC(OCc2cn(-c3ccccc3)nn2)=NS(=O)(=O)O1 [Compound 55] | – | – | – | – | Ki (hCA II; [1]): > 1000 µM; Ki (hCA XII; [1]): > 1000 µM; Ki (hCA I; [1]): > 1000 µM; Ki (hCA IX; [1]): > 1000 µM |
| O=C(O)c1ccccc1S(=O)(=O)Nc1ccc([N+](=O)[O-])cc1 [Compound 24] | – | > 1000 µM | > 1000 µM | 0.24 µM | Ki (hCA II): 66.9 µM; Ki (hCA IX): 0.24 µM |
| O=C1c2ccccc2S(=O)(=O)N1Cc1cn(-c2ccccc2)nn1 [Compound 41] | > 1000 µM | > 1000 µM | > 1000 µM | > 1000 µM | Ki (hCA II): > 1000 µM; Ki (hCA XII): > 1000 µM; Ki (hCA I): > 1000 µM; Ki (hCA IX): > 1000 µM |
| Cc1ccc(-n2cc(CN3C(=O)c4ccccc4S3(=O)=O)nn2)cc1 [Compound 44] | > 1000 µM | > 1000 µM | > 1000 µM | 670 µM | – |
| O=C1c2ccccc2S(=O)(=O)N1c1ccc(Cl)cc1 [Compound 32] | > 1000 µM | > 1000 µM | > 1000 µM | > 1000 µM | – |
| O=C(O)c1ccccc1S(=O)(=O)Nc1ccc(F)cc1 [Compound 18] | > 1000 µM | > 1000 µM | > 1000 µM | 45.8 µM | – |
| COC(=O)c1ccccc1S(=O)(=O)Nc1ccc(OC)cc1 [Compound 16] | > 1000 µM | > 1000 µM | > 1000 µM | 93.3 µM | – |
| COC(=O)c1ccccc1S(=O)(=O)Nc1ccc(C(C)C)cc1 [Compound 15] | > 1000 µM | > 1000 µM | > 1000 µM | 57.6 µM | – |
| O=C(O)c1ccccc1S(=O)(=O)Nc1ccc(Br)cc1 [Compound 21] | > 1000 µM | > 1000 µM | > 1000 µM | 72.8 µM | – |
| CC(C)=CCN1C(=O)C=C(C)OS1(=O)=O [Compound 50] | – | – | – | – | Ki (hCA II; [1]): > 1000 µM; Ki (hCA XII; [1]): 0.24 µM; Ki (hCA I; [1]): > 1000 µM; Ki (hCA IX; [1]): 0.33 µM |
| O=C1c2ccccc2S(=O)(=O)N1c1ccc(C(F)(F)F)cc1 [Compound 34] | > 1000 µM | > 1000 µM | > 1000 µM | > 1000 µM | – |

| Structure (SMILES) | Ki (hCA II; [2]) | Ki (hCA XII; [2]) | Ki (hCA I; [2]) | Ki (hCA IX; [2]) | further results |
| --- | --- | --- | --- | --- | --- |
| O=C1c2ccccc2S(=O)(=O)N1Cc1cn(-c2ccc(Cl)cc2)nn1 [Compound 42] | 80.8 µM | > 1000 µM | > 1000 µM | 759 µM | – |
| O=C(O)c1ccccc1S(=O)(=O)Nc1ccccc1Cl [Compound 19] | > 1000 µM | > 1000 µM | > 1000 µM | > 1000 µM | – |
| COC(=O)c1ccccc1S(=O)(=O)Nc1ccccc1Cl [Compound 7] | > 1000 µM | > 1000 µM | > 1000 µM | 428 µM | – |
| O=C1c2ccccc2S(=O)(=O)N1c1ccc(Br)cc1 [Compound 33] | > 1000 µM | > 1000 µM | > 1000 µM | 869 µM | – |
| COC(=O)c1ccccc1S(=O)(=O)Nc1ccc([N+](=O)[O-])cc1 [Compound 12] | > 1000 µM | > 1000 µM | > 1000 µM | 62.8 µM | – |
| Cc1ccc(N2C(=O)c3ccccc3S2(=O)=O)cc1 [Compound 37] | > 1000 µM | > 1000 µM | > 1000 µM | > 1000 µM | – |
| COC(=O)c1ccccc1S(=O)(=O)Nc1ccc(Cl)cc1 [Compound 8] | > 1000 µM | > 1000 µM | > 1000 µM | 955 µM | – |
| COC(=O)c1ccccc1S(=O)(=O)Nc1c(C)cccc1C [Compound 14] | > 1000 µM | > 1000 µM | > 1000 µM | 39.7 µM | – |
| CC(C)c1ccc(NS(=O)(=O)c2ccccc2C(=O)O)cc1 [Compound 27] | > 1000 µM | > 1000 µM | > 1000 µM | > 1000 µM | – |
| O=C(O)c1ccccc1S(=O)(=O)Nc1ccc(C(F)(F)F)cc1 [Compound 22] | > 1000 µM | > 1000 µM | > 1000 µM | 84.8 µM | – |
| COC(=O)c1ccccc1S(=O)(=O)Nc1cccc([N+](=O)[O-])c1 [Compound 11] | > 1000 µM | > 1000 µM | > 1000 µM | > 1000 µM | – |
| COC(=O)c1ccccc1S(=O)(=O)Nc1ccc(F)cc1 [Compound 6] | > 1000 µM | > 1000 µM | > 1000 µM | 262 µM | – |
| O=C(CN1C(=O)c2ccccc2S1(=O)=O)c1cccc([N+](=O)[O-])c1 [Compound 4] | > 1000 µM | – | > 1000 µM | > 1000 µM | inhibitory activity against hCA II, in words (hCA II): ineffective; Ki (hCA XII): 0.41 µM; inhibitory activity against hCA I, in words (hCA I): ineffective; Ki (hCA IX): > 1000 µM |
| Cc1ccc(-n2cc(CNS(=O)(=O)c3ccccc3C(=O)O)nn2)cc1 [Compound 48] | > 1000 µM | > 1000 µM | > 1000 µM | > 1000 µM | inhibitory activity against hCA II, in words (hCA II): ineffective; inhibitory activity against hCA XII, in words (hCA XII): ineffective; inhibitory activity against hCA I, in words (hCA I): ineffective; inhibitory activity against hCA IX, in words (hCA IX): ineffective |
| O=C1c2ccccc2S(=O)(=O)N1c1ccc(F)cc1 [Compound 30] | > 1000 µM | > 1000 µM | > 1000 µM | > 1000 µM | – |
| Cc1ccc(NS(=O)(=O)c2ccccc2C(=O)O)cc1 [Compound 25] | > 1000 µM | > 1000 µM | > 1000 µM | > 1000 µM | – |
| O=C(O)c1ccccc1S(=O)(=O)Nc1ccc(Cl)cc1 [Compound 20] | > 1000 µM | > 1000 µM | > 1000 µM | > 1000 µM | – |
| COC(=O)c1ccccc1S(=O)(=O)Nc1ccc(C(F)(F)F)cc1 [Compound 10] | > 1000 µM | > 1000 µM | > 1000 µM | 563 µM | – |
